In patent US20210052598A1, “COMPOSITIONS AND METHODS FOR TREATING CANCER” (Beth Israel Deaconess Medical Center, Inc., priority 2018, published 2021):
Entries after “also recorded” stand apart in the source; their conditions may differ. Where a SMILES comes first, the peptide text is derived from it. The star is where a group is joined. Cbz = O=C(OCc1ccccc1)*

Legend:
[1] = tested on: IDH1 and IDH2; assay: Immunoblot of IDH1 and IDH2 after SKPin C1 treatment, 22-Rv1 cells; type: cell-based, human; settings: 22-Rv1 cells, 0, 1, 3, 10, or 30 μM for 24 hours
Method: (§1) 22-Rv1 cells were treated with 0, 1, 3, 10, or 30 μM SKPin C1 for 24 hours, and then harvested for immunoblot analysis. […] LNCaP and 22-Rv1 cells were plated in 6-well plate (1500 cell/well), treated with 0, 0.1, 0.3, or 1 μM Skin C1 for 7 days, and changed to fresh media for another 3 weeks. […] HAP1-IDH1^−/−, HAP1-IDH2^−/− and parental cells were treated with 3 μM SKPin C1 for 24 hours, followed by OCR analysis by Seahorse XF 24 analyzer. * p<0.05.
HeLa and HCT116 cells were used for synchronization. HeLa cells, which have low endogenous Skp2 activity, were used for ectopic expression-based degradation assays. HEK293 cell line was used for ubiquitination assays and co-IP assays to define the interaction between two ectopically expressed proteins, which is the most frequently used cell line for this type of experiment. Human prostate cancer cells, DU145, PC3, LNCaP, VCaP, 22Rv1 and C4-2 were used for compared endogenous Skp2 and IDH1 levels, as well as Skp2 knockdown and Skp2 overexpression. […]
(§2) Cells were lysed in EBC buffer (50 mM Tris pH 7.5, 120 mM NaCl, 0.5% NP-40) supplemented with protease inhibitors (cOmplete Mini, Roche) and phosphatase inhibitors (phosphatase inhibitor cocktail set I and II, Calbiochem). The protein concentrations of the lysates were measured using the Bio-Rad protein assay reagent on a Beckman Coulter DU-800 spectrophotometer. […]

[2] = tested on: IDH1 and IDH2; assay: Immunoblot of IDH1 and IDH2 after SKPin C1 treatment, LNCaP cells; type: cell-based, human; settings: LNCaP cells, 0, 1, 3, 10 or 30 μM for 24 hours
Method: (§3) LNCaP cells were treated with 0, 1, 3, 10 or 30 μM SKPin C1 for 24 hours, harvested for immunoblot analysis of indicated proteins. […] 22Rv1 cells were treated with 10 μM SKPin C1 for 24 hours, harvested for fraction of cytoplasm (C), mitochondria (M), and nuclei (N), followed by immunoblot analysis of indicated proteins. FIG. 11C is a graph showing depletion of endogenous ID111 or IDH2 abolishes the effect of SKPin C1 on OCR. HAP1-IDH1^−/−, IDH2^−/− and parental cells were treated with 3 μM SKPin C1 for 24 hours, followed by OCR analysis by Seahorse XF 24 analyzer. The concentration of oligomycin, FCCP and antimycin A are 1 μM, 0.6 μM and 3 μM, respectively (mean±s.e.m, n=3). […] HAP1-Skp2^+/+ and Skp2^−/− cells were treated with indicated SKPin C1 for 24 hours, followed by immunoblot analysis for indicated proteins. […] Statistical analysis, ** p<0.01. […] Statistical analysis, * p<0.05, ** p<0.01. […]
as §2

[3] = tested on: IDH1 and IDH2; assay: Fractionation of cytoplasm, mitochondria and nuclei with immunoblot, 22Rv1 cells; type: cell-based, human; settings: 10 μM for 24 hours
Method: LNCaP cells were treated with 0, 1, 3, 10 or 30 μM SKPin C1 for 24 hours, harvested for immunoblot analysis of indicated proteins. […] 22Rv1 cells were treated with 10 μM SKPin C1 for 24 hours, harvested for fraction of cytoplasm (C), mitochondria (M), and nuclei (N), followed by immunoblot analysis of indicated proteins. FIG. 11C is a graph showing depletion of endogenous ID111 or IDH2 abolishes the effect of SKPin C1 on OCR. HAP1-IDH1^−/−, IDH2^−/− and parental cells were treated with 3 μM SKPin C1 for 24 hours, followed by OCR analysis by Seahorse XF 24 analyzer. The concentration of oligomycin, FCCP and antimycin A are 1 μM, 0.6 μM and 3 μM, respectively (mean±s.e.m, n=3). […] HAP1-Skp2^+/+ and Skp2^−/− cells were treated with indicated SKPin C1 for 24 hours, followed by immunoblot analysis for indicated proteins. […] Statistical analysis, ** p<0.01. […] Statistical analysis, * p<0.05, ** p<0.01. […] HAP1-Skp2^+/+ and Skp2^−/− cells were treated with 1 μM SKPin C1 for 24 hours, followed by ECAR analysis by Seahorse XF 24 analyzer. […] HAP1-Skp2^+/+ and Skp2^−/− cells were treated with 1 μM SKPin C1 for 24 hours, followed by OCR analysis by Seahorse XF 24 analyzer. The concentration of oligomycin, FCCP and antimycin A are 1 μM, 0.6 μM and 3 μM, respectively (mean±s.e.m, n=3, ** p<0.01, *** p<0.001).
Cells were harvested and subjected to fractionation of cytoplasm (C), mitochondria (M), and nuclei (N) using Cell Fractionation kit (ab109719, Abcam). All fractions and the whole cell lysate (WCL) were subjected to immunoblot analysis for the indicated proteins, with tubulin, citrate synthase, and Histone H3 as markers of cytoplasm, mitochondria, and nucleus, respectively.

[4] = tested on: LNCaP cells; assay: Colony formation assay, LNCaP cells; type: cell-based, human; settings: 1500 cell/well, 0, 0.1, 0.3, or 1 μM for 7 days, fresh media another 3 weeks
Method: as §1
(§4) Cells were cultured in 10% FBS containing DMEM or RPMI-1640 media before plating into 6-well plate at 10,000 cells (3,000 cells for HeLa) per well. Ten days later, cells were fixed with 10% acetic acid/10% methanol for 10 min, stained with 0.4% crystal violet/20% ethanol, followed by counting the colony numbers. For soft agar assays, cells were seeded in 0.4% low-melting-point agarose in DMEM or RPMI-1640 with 10% FBS at 100,000 per well (30,000 cells for HeLa), layered onto 0.8% agarose in DMEM or RPMI-1640 with 10% FBS. The plates were kept in the cell culture incubator for 3-4 weeks after which the cells were stained with iodonitrotetrazolium chloride and colonies were counted.

[5] = tested on: 22-Rv1 cells; assay: Colony formation assay, 22-Rv1 cells; type: cell-based, human; settings: 22-Rv1, 1500 cell/well, 0, 0.1, 0.3, or 1 μM for 7 days, fresh media another 3 weeks
Method: as §1, §4

[6] = tested on: HAP1 cells; assay: Seahorse XF24 oxygen consumption rate (OCR) analysis, HAP1 cells; type: cell-based, human
Method: (§5) LNCaP cells were treated with 0, 1, 3, 10 or 30 μM SKPin C1 for 24 hours, harvested for immunoblot analysis of indicated proteins. […] 22Rv1 cells were treated with 10 μM SKPin C1 for 24 hours, harvested for fraction of cytoplasm (C), mitochondria (M), and nuclei (N), followed by immunoblot analysis of indicated proteins. FIG. 11C is a graph showing depletion of endogenous ID111 or IDH2 abolishes the effect of SKPin C1 on OCR. HAP1-IDH1^−/−, IDH2^−/− and parental cells were treated with 3 μM SKPin C1 for 24 hours, followed by OCR analysis by Seahorse XF 24 analyzer. The concentration of oligomycin, FCCP and antimycin A are 1 μM, 0.6 μM and 3 μM, respectively (mean±s.e.m, n=3). […] HAP1-Skp2^+/+ and Skp2^−/− cells were treated with indicated SKPin C1 for 24 hours, followed by immunoblot analysis for indicated proteins. […] Statistical analysis, ** p<0.01. […] Statistical analysis, * p<0.05, ** p<0.01. […] HAP1-Skp2^+/+ and Skp2^−/− cells were treated with 1 μM SKPin C1 for 24 hours, followed by ECAR analysis by Seahorse XF 24 analyzer. […] HAP1-Skp2^+/+ and Skp2^−/− cells were treated with 1 μM SKPin C1 for 24 hours, followed by OCR analysis by Seahorse XF 24 analyzer. […]
(§6) Oxygen consumption rate (OCR) and extracellular acidification rate (ECAR) were measured using Seahorse XF24 analyzer (Boston, Mass., USA). […]

[7] = tested on: IDH1 and IDH2; assay: Immunoblot of IDH1 and IDH2 in HAP1-Skp2+/+ and Skp2-/- cells; type: cell-based, human; settings: 24 hours
Method: as §3, §2

[8] = tested on: HAP1 cells; assay: Seahorse XF24 extracellular acidification rate (ECAR) analysis, HAP1 cells; type: cell-based, human; settings: 1 μM for 24 hours
Method: as §5, §6

[9] = tested on: IDH1 and IDH2; assay: Immunoblot of IDH1 and IDH2 after MG132 or MLN4924, RWPE1 cells; type: cell-based; settings: 10 μM for 8 hours
Method: RWPE1 cells were incubated with 10 μM MG132 or MLN4924 for 8 hours, followed by immunoblot analysis of IDH1 and IDH2. FIG. 16B are immunoblots showing that IDH1 specifically interacts with Cullin 1 in cells. Immunoblot analysis of immunoprecipitates (IP) and whole cell lysates (WCL) derived from HEK293 cells transfected with Flag-IDH1 and the indicated Myc-tagged Cullins for 48 hours. FIG. 16C are immunoblots showing that IDH1 specifically interacts with two F-box proteins, Skp2, and to a lesser extent, Fbw4, in cells. Immunoblot analysis of IP and WCL derived from HEK293 cells transfected with Flag-IDH1 and the indicated CMV-GST-tagged F-box proteins for 48 hours. FIG. 16D are immunoblots showing depletion of SKP2 in HeLa cells leads to accumulated IDH1. […] The labeled glycolytic intermediates were measured using HPLC-MS. n=3, * p<0.05, ** p<0.01, ***p<0.001. […] The labeled TCA cycle intermediates were measured using HPLC-MS. n=3, * p<0.05, ** p<0.01, *** p<0.001.
as §2

Structure (SMILES) | IDH1 and IDH2 protein abundance (immunoblot) [1] | IDH1 and IDH2 protein abundance (immunoblot) [2] | IDH1 localization after treatment [3] | IDH2 localization after treatment [3] | IDH1 and IDH2 protein abundance in cell fractions ([3]; cytoplasm/mitochondria/nuclei fractions) | Colony growth [4] | Colony growth [5] | Effect on OCR in HAP1-Skp2+/+ and Skp2-/- cells ([6]; 1 μM for 24 hours) | Effect on OCR in HAP1-IDH1-/-, HAP1-IDH2-/- and parental cells ([6]; 3 μM for 24 hours) | Effect on IDH1 and IDH2 in HAP1-Skp2+/+ and Skp2-/- cells [7] | Effect on ECAR in HAP1-Skp2+/+ and Skp2-/- cells [8] | IDH1 and IDH2 protein abundance (immunoblot) [9]
O=C(O)COc1ccc(Br)cc1/C=C1\SC(=S)N(Cc2cccnc2)C1=O [SKPin C1] | significantly stabilized both IDH1 and IDH2; also recorded: robust accumulation of IDH1 and IDH2 | significantly stabilized both IDH1 and IDH2; also recorded: accumulated protein abundance of IDH1 and IDH2 | mainly localized in the cytoplasmic fraction regardless of SKPin C1 treatment | detected in the cytoplasmic fraction | accumulated protein abundance of IDH1 and IDH2 in cytoplasm | blocks the colony growth | blocks the colony growth | depletion of Skp2 abolishes the effect of SKPin C1 on OCR | depletion of endogenous IDH1 or IDH2 abolishes the effects of SKPin C1 on OCR | depletion of Skp2 abolishes the effect of SKPin C1 on IDH1 and IDH2 | depletion of Skp2 abolishes the effect of SKPin C1 on ECAR | 
CC(C)C[C@@H](C=O)NC(=O)[C@H](CC(C)C)NC(=O)[C@H](CC(C)C)NC(=O)OCc1ccccc1 [MG132] (Cbz-Leu-Leu-Leu-aldehyde) |  |  |  |  |  |  |  |  |  |  |  | elevated; also recorded: accumulation of IDH1 and IDH2
NS(=O)(=O)OC[C@@H]1C[C@@H](n2ccc3c(N[C@H]4CCc5ccccc54)ncnc32)C[C@@H]1O [MLN4924] |  |  |  |  |  |  |  |  |  |  |  | elevated; also recorded: accumulation of IDH1 and IDH2
